Measurements as given in patent US10940139B2, “Compounds that interact with the Ras superfamily for the treatment of cancers, inflammatory diseases, rasopathies, and fibrotic disease” (Shy Therapeutics LLC, priority 2017, dated 2021).

What follows are compounds tested on MAPK phosphorylation in PANC-1 pancreatic cancer cell line (assay: MAPK cell-based phosphorylation assay (cell-direct ELISA, EGF stimulation)). Settings: Homo sapiens.
Description: Cell lines: Tumor-derived pancreatic cancer cell lines PANC-1 were purchased from ATCC and were maintained according to ATCC recommendation.
Method: Cells were plated at 7500 cells/well density in 96-wells plate, starved over night, and the small molecules to be tested were added to the cells in the final concentration of 30 μM with 0.3% DMSO for 6 hours incubation at 37° C. For IC50 value determination, serial dilutions of compounds were added to cells under the same conditions. Next, cells were stimulated with 1.5 ng/ml EGF for 15 min. followed by cell fixation with 4% Formaldehyde in PBS at RT for 20 min. Phosphorylation level of MAPK was determined by Cell-direct ELISA.
Cell-direct ELISA: For each well, cells were permeabilized with PBS-Triton 0.1%, quenched with H2O2 0.6% in PBS-Triton 0.1%, and probed with anti-phospho-MAPK antibodies (R&D Systems) followed by HRP-conjugated secondary antibody (Jackson Immunoresearch, West Grove, Pa.). Next, a solution 50 μM of the fluorescent substrate AmpliFlu Red (Sigma) was added and incubated at RT for 20 min. At the end of the incubation time, fluorescence was measured at 595 nm on a microplate reader (AF2200; Eppendorf, Inc., Hamburg, Germany).

`Oc1nc(-c2ccccn2)nc2c(Br)csc12` [drawing 1064] and `Oc1nc(-c2ccccn2)nc2scc(Br)c12` [drawing 1080] fall in the same range of IC50: 2 to 10 µM for the first, 2 to 10 µM for the second.

First: O=C(c1csc2c(O)nc(-c3ccccn3)nc12)N1CCN(c2ccccc2)CC1 [drawing 1068]
Second: Oc1nc(-c2ccccn2)nc2c(-c3ccccc3)csc12 [drawing 1074]
The IC50 of the first is higher: 2 to 10 µM for the first, < 2 µM for the second. The second is the more potent here.

First: Oc1nc(-c2ccccn2)nc2c(-c3ccccc3Cl)csc12 [drawing 1075]
Second: Oc1nc(-c2ccccn2)nc2sccc12 [drawing 1081]
The IC50 of the first is lower: < 2 µM for the first, 11 to 30 µM for the second. The first is the more potent here.

Same assay, conditions: Homo sapiens, at 30 μM

`COC(=O)c1ccc(C(=O)NCC2(c3ccccc3OC)CCCC2)nc1` [drawing 1048] and `COc1ccc(COCC(=O)N2CCCc3c(O)nc(-c4ccccn4)nc32)cc1` [drawing 1057] fall in the same range of inhibition at 30 µM: 1 to 25% for the first, 1 to 25% for the second.

Compared with `CCOc1cc(S(=O)(=O)N(Cc2ccccc2)Cc2ccccc2)c(OCC)cc1C` [drawing 1049], `O=S(=O)(CCc1ccccc1)N1CCCc2c(O)nc(-c3ccccn3)nc21` [drawing 1060] is higher in inhibition at 30 µM: 1 to 25% for the first, 25 to 50% for the second.

`COc1ccc(CN(CC[S+]([O-])c2cc(Cl)ccc2Cl)C2CC2)cc1` (stereo not drawn) [drawing 1050] and `COc1ccc(CCC(=O)N2CCCc3c(O)nc(-c4ccccn4)nc32)cc1` [drawing 1058] fall in the same range of inhibition at 30 µM: 25 to 50% for the first, 25 to 50% for the second.

`CCCOc1ccc2ccccc2c1CN(C)S(=O)(=O)N1CC(C)OC(C)C1` (stereo not drawn) [drawing 1051] and `CC(C)C1=C(O)C2(CC2c2ccc(-c3ccccc3)cc2)C(C)CC1` (stereo not drawn) [drawing 1056] fall in the same range of inhibition at 30 µM: 1 to 25% for the first, 1 to 25% for the second.

`O=S(=O)(Oc1cc(C(F)(F)F)cc(C(F)(F)F)c1)N1CCc2ccccc2C1` [drawing 1052] and `Nc1nc(O)c2scc(C(=O)N3CCc4ccccc4CC3)c2n1` [drawing 1063] fall in the same range of inhibition at 30 µM: 1 to 25% for the first, 1 to 25% for the second.

`COC(=O)C(C)CN(Cc1cc(Br)ccc1[N+](=O)[O-])C1CC1` (stereo not drawn) [drawing 1054] and `COCCCC1CCN(C(=O)c2csc3c(O)nc(-c4ccccn4)nc23)CC1` [drawing 1066] fall in the same range of inhibition at 30 µM: 1 to 25% for the first, 1 to 25% for the second.

First: CSc1nc(C2CC2)cc(C(=O)NCCc2ccc(S(=O)(=O)NC(=O)c3cc(C4CC4)nc(SC)c3C#N)cc2)c1C#N [drawing 1055]
Second: O=C(NCCc1cccnc1)c1csc2c(O)nc(-c3ccccn3)nc12 [drawing 1071]
The inhibition at 30 µM of the first is higher: 76 to 100% for the first, 1 to 25% for the second.

`O=C(c1ccc(=O)[nH]n1)N1CCCc2c(O)nc(-c3ccccn3)nc21` [drawing 1059] and `O=C(c1ccccn1)N1CCCc2c(O)nc(-c3ccccn3)nc21` [drawing 1062] fall in the same range of inhibition at 30 µM: 1 to 25% for the first, 1 to 25% for the second.

First: O=C(CC(c1ccccc1)c1ccccc1)N1CCCc2c(O)nc(-c3ccccn3)nc21 [drawing 1061]
Second: O=C(c1csc2c(O)nc(-c3ccccn3)nc12)N1CCN(c2ccccc2)CC1 [drawing 1068]
The inhibition at 30 µM of the first is lower: 1 to 25% for the first, 76 to 100% for the second.

`Oc1nc(-c2ccccn2)nc2c(Br)csc12` [drawing 1064] and `Oc1nc(-c2ccccn2)nc2scc(Br)c12` [drawing 1080] fall in the same range of inhibition at 30 µM: 76 to 100% for the first, 76 to 100% for the second.

`CC1CCN(C(=O)c2csc3c(O)nc(-c4ccccn4)nc23)CC1` [drawing 1065] and `O=C(c1csc2c(O)nc(-c3ccccn3)nc12)N1CCC(N2CCOCC2)CC1` [drawing 1067] fall in the same range of inhibition at 30 µM: 1 to 25% for the first, 1 to 25% for the second.

Compared with `O=C(c1csc2c(O)nc(-c3ccccn3)nc12)N1CCN(c2ccncc2)CC1` [drawing 1069], `O=C(c1csc2c(O)nc(-c3ccccn3)nc12)N1CCC(c2cccnc2)CC1` [drawing 1070] is lower in inhibition at 30 µM: 25 to 50% for the first, 1 to 25% for the second.

First: O=C(c1csc2c(O)nc(-c3ccccn3)nc12)N1CCc2ccccc2CC1 [drawing 1072]
Second: Oc1nc(-c2ccccn2)nc2c(-c3ccccc3Cl)csc12 [drawing 1075]
The inhibition at 30 µM of the first is lower: 25 to 50% for the first, 76 to 100% for the second.

Compared with `Nc1nc(O)c2scc(-c3ccccc3Cl)c2n1` [drawing 1073], `Oc1nc(-c2ccccn2)nc2c(-c3ccccc3)csc12` [drawing 1074] is higher in inhibition at 30 µM: 1 to 25% for the first, 76 to 100% for the second.

`Oc1nc(-c2ccccn2)nc2[nH]cnc12` [drawing 1076] and `Oc1nc(-c2ccccn2)nc2sccc12` [drawing 1081] fall in the same range of inhibition at 30 µM: 1 to 25% for the first, 1 to 25% for the second.

`Oc1nc(-c2ccccn2)nc2c1ncn2-c1ccccn1` [drawing 1077] and `O=C1CN(c2nc(-c3ccccn3)nc3scc(-c4ccccc4)c23)CCN1` [drawing 1082] fall in the same range of inhibition at 30 µM: 1 to 25% for the first, 1 to 25% for the second.

In the case of `Brc1csc2nc(-c3ccccn3)nc(N3CCOCC3)c12` [drawing 1079], the inhibition at 30 µM was 1 to 25%.
